Key:
Estrogen receptor [1] = target: T1, Estrogen receptor (Homo sapiens, UniProt Q92731+P03372); conditions: mcf7
Description: Half maximal inhibitory concentration against estrogen-induced proliferation of MCF-7 breast cells by 10 pM E2

Estrogen receptor beta = Estrogen receptor beta (Rattus norvegicus, UniProt Q62986)
Description: Binding affinity for rat estrogen receptor beta

Estrogen receptor [2] = target: T1, Estrogen receptor; conditions: ishikawa
Description: Inhibitory concentration against estrogen-induced proliferation of Ishikawa uterine cells by 1 nM E2

Estrogen receptor [3] = target: T2, Estrogen receptor (Rattus norvegicus, UniProt P06211)
T2 sequence (P06211 whole entry): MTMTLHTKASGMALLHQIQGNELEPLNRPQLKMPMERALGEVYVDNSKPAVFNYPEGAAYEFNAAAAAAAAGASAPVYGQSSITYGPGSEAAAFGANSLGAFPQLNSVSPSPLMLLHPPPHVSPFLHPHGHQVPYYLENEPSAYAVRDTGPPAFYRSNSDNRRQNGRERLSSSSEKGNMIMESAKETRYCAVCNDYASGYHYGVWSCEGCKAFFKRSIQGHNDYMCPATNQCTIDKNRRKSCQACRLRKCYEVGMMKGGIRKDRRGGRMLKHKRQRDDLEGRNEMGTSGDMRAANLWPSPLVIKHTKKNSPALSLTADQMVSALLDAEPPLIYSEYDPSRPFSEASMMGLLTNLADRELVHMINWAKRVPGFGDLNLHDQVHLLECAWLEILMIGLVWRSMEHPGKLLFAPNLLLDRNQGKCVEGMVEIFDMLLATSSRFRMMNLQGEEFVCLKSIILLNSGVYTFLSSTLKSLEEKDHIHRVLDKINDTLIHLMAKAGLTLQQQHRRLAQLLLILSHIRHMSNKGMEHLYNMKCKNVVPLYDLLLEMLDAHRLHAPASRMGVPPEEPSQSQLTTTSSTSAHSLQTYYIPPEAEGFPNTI
Description: Binding affinity for rat estrogen receptor alpha

Estrogen receptor beta, sequence (Q62986 whole entry): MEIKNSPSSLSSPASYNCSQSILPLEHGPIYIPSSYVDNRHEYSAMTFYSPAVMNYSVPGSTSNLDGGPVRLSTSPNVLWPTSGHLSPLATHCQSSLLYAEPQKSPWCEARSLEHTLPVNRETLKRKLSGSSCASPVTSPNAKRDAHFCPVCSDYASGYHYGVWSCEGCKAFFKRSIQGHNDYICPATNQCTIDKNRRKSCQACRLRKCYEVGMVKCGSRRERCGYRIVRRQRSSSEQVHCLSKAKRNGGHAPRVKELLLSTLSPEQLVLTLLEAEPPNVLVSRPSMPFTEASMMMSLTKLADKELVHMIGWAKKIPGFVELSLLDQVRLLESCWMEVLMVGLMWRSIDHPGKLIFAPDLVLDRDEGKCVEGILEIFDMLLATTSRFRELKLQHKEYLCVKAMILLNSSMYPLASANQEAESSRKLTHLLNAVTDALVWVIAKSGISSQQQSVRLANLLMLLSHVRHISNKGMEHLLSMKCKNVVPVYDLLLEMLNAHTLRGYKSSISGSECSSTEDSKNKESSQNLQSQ

Structure (SMILES) | IC50 (Estrogen receptor [1]) [nM] | Ki (Estrogen receptor beta) [nM] | IC50 (Estrogen receptor [2]) [nM] | Ki (Estrogen receptor [3]) [nM]
Cl.Oc1ccc2c(Oc3ccc(OCCN4CCCCC4)cc3)c(-c3ccc(F)cc3)ccc2c1 | 0.34 | 0.3 | 3.18 | 0.25
CS(=O)(=O)c1ccc(-c2ccc3cc(O)ccc3c2Cc2ccc(OCCN3CCCCC3)cc2)cc1.Cl | 3.4 | 24.1 | 4.78 | 1.15
Cl.Oc1ccc(-c2ccc3cc(O)ccc3c2Cc2ccc(OCCN3CCCCC3)cc2)cc1 | 0.2 | 0.7 | 1.14 | 0.2

From ChEMBL document CHEMBL1141131, “A selective estrogen receptor modulator designed for the treatment of uterine leiomyoma with unique tissue specificity for uterus and ovaries in rats” (J Med Chem, 2005)
